This passage reports IC50 results from patent US9670227B2, “Thienopyrimidine derivatives, a process for their preparation and pharmaceutical compositions containing them” (LES LABORATOIRES SERVIER, priority 2013, dated 2017).

Read-outs that look alike come from different tables or passages of the source.

One test concerns the target Mcl-1 protein (UniProtKB primary accession number: Q07820) (Homo sapiens, UniProt Q07820). As to the kind of experiment: Inhibition of Mcl-1 by fluorescence polarisation, Method 1. The class given is binding. To be noted: read-out: IC50 (M) Mcl-1 FP. An outline of the steps:
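Compounds were tested as 11-point serial dilutions at 5% final DMSO against 5 nM Mcl-1 with 1 nM fluorescein-labelled ligand in 10 mM HEPES, 150 mM NaCl, 0.05% Tween 20, pH 7.4. Relative binding potency was read by fluorescence polarisation.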
For orientation: Polarisation of emitted light reports the rotation of a fluorescent probe.

The subject of test [1] is H929 multiple myeloma tumour line. Briefly: In vitro cytotoxicity, Microculture Tetrazolium Assay. It is filed as cell-based. Conditions: Homo sapiens, NCI-H929, 48 h, H929 cells, 48 hours exposure, MTT; read-out: IC50 (μM) MTT H929. The method, then:
The cytotoxicity studies were carried out on the H929 multiple myeloma tumour line.
The cells are distributed onto microplates and exposed to the test compounds for 48 hours.

[2] abbreviates: fluorescence polarisation test, Method 2 values are underlined in the patent (underlining not visible here).
Where [3] appears, read: fluorescence polarisation, Method 1, or Method 2.

Chain of Mcl-1 protein (Q07820 whole entry): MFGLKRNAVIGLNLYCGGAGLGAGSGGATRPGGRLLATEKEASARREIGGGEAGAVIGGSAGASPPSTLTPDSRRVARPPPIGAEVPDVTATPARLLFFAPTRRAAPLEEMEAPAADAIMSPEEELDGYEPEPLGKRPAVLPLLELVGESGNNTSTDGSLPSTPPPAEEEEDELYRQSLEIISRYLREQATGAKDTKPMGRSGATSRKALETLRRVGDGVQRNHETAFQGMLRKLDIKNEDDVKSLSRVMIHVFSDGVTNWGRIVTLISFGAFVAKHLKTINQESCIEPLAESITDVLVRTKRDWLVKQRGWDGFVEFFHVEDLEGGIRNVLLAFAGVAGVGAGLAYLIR

One may read the IC50 as the concentration that inhibits the measured activity by half. With `Cc1c(-c2c(-c3ccc(F)cc3)sc3ncnc(OC(Cc4ccccc4OCc4ncncc4Br)C(=O)O)c23)ccc(OCCN2CCN(C)CC2)c1Cl` [Example 101, (2R)-3-{2-[(5-bromopyrimidin-4-yl)methoxy]phenyl}-2-{[(5Sa)-5-{3-chloro-2-methyl-4-[2-(4-methylpiperazin-1-yl)ethoxy]phenyl}-6-(4-fluorophenyl)thieno[2,3-d]pyrimidin-4-yl]oxy}propanoic acid], the half-maximal inhibitory concentration (IC50) worked out at 8e-09 M at Mcl-1 protein (setting [2]) and 0.398 µM in test [1].
Regarding `C#Cc1cccc(-c2sc3ncnc(OC(Cc4ccccc4OC)C(=O)O)c3c2-c2ccc(OCCN3CCN(C)CC3)c(Cl)c2C)c1` [Example 547, (2R)-2-{[(5Sa)-5-{3-chloro-2-methyl-4-[2-(4-methylpiperazin-1-yl)ethoxy]phenyl}-6-(3-ethynylphenyl)thieno[2,3-d]pyrimidin-4-yl]oxy}-3-(2-methoxyphenyl)propanoic acid], the values for the IC50 (at Mcl-1 protein (setting [3]); in test [1]) were 3.3e-08 M and 0.475 µM, respectively.
With `COc1ccccc1CC(Oc1ncnc2sc(-c3csc(Cl)c3)c(-c3ccc(OCCN4CCN(C)CC4)c(Cl)c3C)c12)C(=O)O` [Example 570, (2R)-2-{[(5Sa)-5-{3-chloro-2-methyl-4-[2-(4-methylpiperazin-1-yl)ethoxy]phenyl}-6-(5-chlorothiophen-3-yl)thieno[2,3-d]pyrimidin-4-yl]oxy}-3-(2-methoxyphenyl)propanoic acid], the IC50 was found to be 2e-08 M on Mcl-1 protein (setting [3]) and 0.324 µM in test [1].
Turning to `Cc1c(-c2c(-c3ccc(F)cc3)sc3ncnc(OC(Cc4ccccc4OCc4ccnc(CC5CC5)n4)C(=O)O)c23)ccc(OCCN2CCN(C)CC2)c1Cl` [Example 39, (2R)-2-{[(5Sa)-5-{3-chloro-2-methyl-4-[2-(4-methylpiperazin-1-yl)ethoxy]phenyl}-6-(4-fluorophenyl)thieno[2,3-d]pyrimidin-4-yl]oxy}-3-(2-{[2-(cyclopropylmethyl)pyrimidin-4-yl]methoxy}phenyl)propanoic acid], the IC50 turned out to be 4.8e-09 M at Mcl-1 protein (setting [2]) and 0.015 µM in test [1].
For the compound `COCCN(C)c1nccc(COc2ccccc2CC(Oc2ncnc3sc(-c4ccc(F)cc4)c(-c4ccc(OCCN5CCN(C)CC5)c(Cl)c4C)c23)C(=O)O)n1` [Example 48, (2R)-2-{[(5Sa)-5-{3-chloro-2-methyl-4-[2-(4-methylpiperazin-1-yl)ethoxy]phenyl}-6-(4-fluorophenyl)thieno[2,3-d]pyrimidin-4-yl]oxy}-3-[2-({2-[(2-methoxyethyl)(methyl)amino]pyrimidin-4-yl}methoxy)phenyl]propanoic acid], the results for the half-maximal inhibitory concentration (IC50) (at Mcl-1 protein (setting [2]); in test [1]) were 1.1e-08 M and 0.122 µM, respectively.
For the compound `CCCn1nccc1COc1ccccc1CC(Oc1ncnc2sc(-c3ccc(F)c(OC)c3)c(-c3ccc(OCCN4CCN(C)CC4)c(Cl)c3C)c12)C(=O)O` [Example 385, (2R)-2-{[(5Sa)-5-{3-chloro-2-methyl-4-[2-(4-methylpiperazin-1-yl)ethoxy]phenyl}-6-(4-fluoro-3-methoxyphenyl)thieno[2,3-d]pyrimidin-4-yl]oxy}-3-{2-[(1-propyl-1H-pyrazol-5-yl)methoxy]phenyl}propanoic acid], the half-inhibitory concentration (IC50) on Mcl-1 protein (setting [2]) amounted to 3.5e-09 M; in test [1] it was 0.048 µM.
In the case of `Cc1c(-c2c(-c3ccco3)sc3ncnc(OC(Cc4ccccc4OCc4cn(Cc5ccccc5)nn4)C(=O)O)c23)ccc(OCCN2CCN(C)CC2)c1Cl` [Example 294, (2R)-3-{2-[(1-benzyl-1H-1,2,3-triazol-4-yl)methoxy]phenyl}-2-{[(5Sa)-5-{3-chloro-2-methyl-4-[2-(4-methylpiperazin-1-yl)ethoxy]phenyl}-6-(furan-2-yl)thieno[2,3-d]pyrimidin-4-yl]oxy}propanoic acid], the IC50 is 1.6e-08 M at Mcl-1 protein (setting [2]) and 0.886 µM in test [1].
